These results are taken from patent US8986696B2, “Trans-capsular administration of p38 map kinase inhibitors into orthopedic joints” (DePuy Mitek, Inc., priority 2007, dated 2015).

Entries after “also recorded” stand apart in the source; their conditions may differ.

Data set [1] deals with injured cartilage explants, PGE2 synthesis. Description: drop tower design model: PGE2 synthesis. The data set is classed as cell-based, bovine. The following applies: cocktail of cytokines. The text has this: The device comprises a vertical rail that guides a sliding weight from 0.1 kg to 3 kg directly onto a force transducer which is situated at the bottom of the device. A sphere-shaped 2 mm indenter resting on a specimen is located at the bottom of the vertical rail. The indenter is held by a stop screw. The specimen is rigidly attached to a tissue holder underneath the indenter, to avoid side movements, the specimen is rigidly attached to the tissue holder. In this manner, the force transducer transduces a force indirectly onto the specimen. Adjusting the weight of a mass and height from which the mass drops varies the magnitude of the intended impact. For example, a weight mass (e.g., […]) held by a weight holder can be released from a height of e.g., 36 cm and dropped onto the force transducer. […]
In the first method, bovine or human PBMCs were freshly prepared using Ficoll gradient by Lampire Biological Laboratories, Inc. PBMCs in RPMI w/10% FCS at delivery were spun down at 1500 rpm for twenty minutes and the cell pellet was washed twice with 1×PBS to wash off the residual Ficoll. […] Each conditioned medium was assessed for levels of pro-inflammatory cytokines to ensure their secretion from PBMC. […]
PGE2 was measured with STAT-Prostaglandin E2 EIA ELISA kit (Cayman Biochemicals), as described in Example III above. […]

The subject of data set [2] is IL-1β-stimulated PGE2 synthesis, bovine chondrocyte pellets / ARC tissues. Kind of data set: chondrocyte pellet culture model: PGE2. Type of data set: cell-based. From the text: (§1) Calf articular cartilage was obtained from the knee joints of eight to twelve month old animals and was processed within twenty-four hours after sacrifice. After removal of muscle and ligament, the cartilage was kept moist using phosphate buffer solution (PBS) to prevent tissue dehydration, and was aseptically peeled off from subchondral bone with a scalpel, and the cartilage pieces were further minced into smaller pieces (˜0.3-0.5×˜0.2-0.5 cm cubes). […] Chondrocytes were then enzymatically isolated from the tissue by incubation for overnight at 37° C. with gentle agitation in 0.2% collagenase in Dulbecco's modified eagle media (DMEM). After removal of tissue debris by filtration through cell strainer and the residual collagenase by 3× wash in PBS, cells were finally resuspended at a density of 2.5×10^6 cells/ml in chondrocyte medium. A 1 ml aliquot of the cell suspension was dispensed into either a 15 ml Falcon centrifuge tube or a 96 deep-well plate and centrifuged at 2000×g for five minutes. The chondrocyte pellets were incubated at 37° C. in a humidified atmosphere of 5% CO2 for two to three weeks with a medium change every other day.
(§2) As an alternative to using calf articular cartilage, a commercial Alginate Recovered Chondrocytes (ARC) system was also used (Articular Engineering, LLC (Northbrook, Ill.)). Use of the commercial system cut down on labor and time in producing chondrocyte pellet. This system produced cartilaginous tissue in vitro using bovine chondrocytes. The first step consisted of culturing chondrocytes in alginate under conditions optimal for the formation of a cell-associated matrix (CM). The second step allowed these cells with their CM, after recovery, to rapidly form and become integrated into a solid mass of cartilage on a porous insert within two weeks. This tissue is rich in cells surrounded by a cell-associated matrix that is degraded rapidly when the cells are exposed to IL-1. ARC tissues in 3 mm punches at delivery were first dispensed into a 96 deep-well plate, one punch per well, for compound treatment. The subsequent procedures were the same as those used for the chondrocyte pellets.
(§3) Chondrocyte pellets were washed once with 1 ml of Chondrocyte Stimulation Medium and equilibrated in the same medium at room temperature for fifteen to thirty minutes. Compounds were dissolved in H2O, Ethanol or dimethyl sulfoxide (DMSO) (10^−2 M) according to suppliers' instructions and further diluted with Chondrocyte Stimulation Medium to the required concentrations. DMSO concentrations in the culture media should not exceed 1%; this concentration of DMSO has no effect on cartilage proteoglycan metabolism in response to cytokines.
(§4) The pellets were first treated with compounds at desired concentrations at 37° C. for one hour and then incubated for three to five days in the absence or presence of 10 ng/ml of IL-1β. At the end of the incubation, media and pellets were harvested and frozen for further analysis. Pellets were also fixed as needed in 4% (w/v) paraformaldehyde in PBS for histology analysis.
(§5) Prostaglandin E2 (PGE2) was measured with a STAT-Prostaglandin E2 EIA ELISA kit (Cayman Biochemicals). This assay is based on the competition between PGE2 from 50 μl samples and a PGE2-alkaline phosphatase conjugate for a limited amount of PGE2 monoclonal antibody in a reaction volume of 150 μl at room temperature for one hour. The antibody-PGE2 complex bound to a goat polyclonal anti-mouse IgG that had been previously attached to the well. After washing to remove any unbound reagents, para-nitrophenyl phosphate (pNPP) was added to the well. The product of this enzymatic reaction absorbs strongly at 412 nm. Because of the large range in response to IL-1β and other cytokines, PGE2 values were converted to log scale prior to doing t-tests.

For data set [3], the system named is IL-1β-stimulated NO production, bovine chondrocyte pellets / ARC tissues. Kind of data set: chondrocyte pellet culture model: total nitrite/nitrate (NO). Type of data set: cell-based. The following applies: ARC, 7.5 ng/ml IL-1, five days; JNJ 7706621 at 5 μM.
Description: as §1, §2, §3, §4
Nitrate/Nitrite levels were measured using the Griess reaction (Green L. C. et al., “Analysis of Nitrate, Nitrite, and [15N]nitrate in Biological Fluids,” Anal. Biochem. 126: 131-138 (1982)) with aNitrate/Nitrite Colorimetric Assay Kit (Cayman Chemicals), the contents of which are incorporated herein by reference. The assay involved a simple two-step process. The first step involved conversion of nitrate in 50 μl of culture medium to nitrite utilizing nitrate reductase in a reaction volume of 100 μl at room temperature for two hours. The second step involved the addition of 50 μl of both Griess Reagent 1 and 2, which converted nitrite into a deep purple azo compound in ten minutes. Photometric measurement of the absorbance at 540 or 550 nm due to this azo chromophore accurately determined nitrite concentration. […]

For the next data set, the system named is chondrocytes. Type of data set: cell-based.
Description: as §1, §2, §3, §4
The LDH activity was determined colorimetrically in an enzymatic test based on the conversion of lactic acid to pyruvate in the presence of chromagenic substrate tetrazolium salt INT that was reduced to formazan.

Data set [4] has as its system IL-1β-stimulated GAG release, bovine chondrocyte pellets / ARC tissues. Description: chondrocyte pellet culture model: GAG degradation. Type of data set: cell-based. The following applies: ARC, 7.5 ng/ml IL-1, five days; JNJ 7706621 at 5 μM.
Description: as §1, §2, §3
[…] At the end of the incubation, media and pellets were harvested and frozen for further analysis. Pellets were also fixed as needed in 4% (w/v) paraformaldehyde in PBS for histology analysis.
(§6) Glycosaminoglycan (GAG) levels in the culture media were determined by measuring the amount of polyanionic material reacting with 1,9-dimethylmethylene blue (DME) as detected by absorbance at 525 nm, using shark chondroitin sulfate as a standard. The DME blue dye-binding solution was prepared by dissolving 16 mg of DME blue in a solution containing 0.304% glycine, 0.23% sodium chloride (NaCl), 9.5 mM hydrochloric acid (HCl), pH=3.0 with absorbance at 525 equal to 0.31. Proteoglycans and proteoglycan metabolites in chondrocyte pellet were released by digesting the pellet with 125 μg/ml of papain in 0.1 M PBS, pH 6.0, 5 mM cysteine, 5 mM ethylene-diamine-tetra-acetic acid disodium salt (Na2EDTA) at 50° C. for overnight. Results are reported as either micrograms of GAG per milliliter or percent of total GAG released into culture medium.

Data set [5] relates to human tumor xenograft models. Description: human tumor xenograft models. To be noted: in vivo. For orientation: A xenograft is tissue or cells of one species grown in another, often human tumour cells in immunodeficient mice.
For another data set, the system named is human cancer cell lines. Kind of data set: cell proliferation in culture. Type of data set: cell-based. The following applies: in 9 cell lines, read-out: inhibits cell proliferation in culture IC50.
For data set [6], the system named is cytokine-stimulated NO production, human ARC tissues. Description: human ARC tissues: NO production. The data set is classed as cell-based. On the procedure: Nitrate/Nitrite levels were measured using the Griess reaction (Green L. C. et al., “Analysis of Nitrate, Nitrite, and [15N]nitrate in Biological Fluids,” Anal. Biochem. 126: 131-138 (1982)) with aNitrate/Nitrite Colorimetric Assay Kit (Cayman Chemicals), the contents of which are incorporated herein by reference. The assay involved a simple two-step process. The first step involved conversion of nitrate in 50 μl of culture medium to nitrite utilizing nitrate reductase in a reaction volume of 100 μl at room temperature for two hours. The second step involved the addition of 50 μl of both Griess Reagent 1 and 2, which converted nitrite into a deep purple azo compound in ten minutes. Photometric measurement of the absorbance at 540 or 550 nm due to this azo chromophore accurately determined nitrite concentration. This assay kit cannot be used for RPMI (Roswell Park Memorial Institute) derived tissue culture medium due to interference with the colorimetric reaction.
® infliximab is a monoclonal antibody against human TNFα. To test whether […]® could modulate cytokine-stimulated responses in chondrocytes, human chondrocyte pellets were first tested for an optimal concentration for cytokine stimulation. Human ARC (i.e., ARCs generated using human chondrocytes) tissues were treated with various concentrations of either TNF or IL-1 for four and five days. […]

In data set [7] the test system is cytokine-stimulated GAG release, human ARC tissues. Kind of data set: human ARC tissues: GAG degradation. Type of data set: cell-based. On the procedure:
as §6
(§7) ® infliximab is a monoclonal antibody against human TNFα. To test whether […]® could modulate cytokine-stimulated responses in chondrocytes, human chondrocyte pellets were first tested for an optimal concentration for cytokine stimulation. Human ARC (i.e., ARCs generated using human chondrocytes) tissues were treated with various concentrations of either TNF or IL-1 for four and five days. The culture media was collected for measurement of GAG content as described above. Other assays were performed as described above. Cytokine dosage at 5 ng/ml and treatment for five days gave a reasonable treatment window, yet was not too challenging for compound efficacy (FIG. 4).
(§8) Human ARC tissues were then treated with various concentrations of […]® in the presence or absence of either 10 ng/ml of TNFα or 5 ng/ml of IL-1β for four or five days.
(§9) The efficacy of a monoclonal antibody (mAb) against human IL-6 in inhibition of proteoglycan degradation, NO production and PGE2 synthesis on human ARC tissues stimulated with IL-6 was also tested. Human ARC tissue were treated with 12.5, 25 and 250 ng/ml of IL-6 mAb diluted into chondrocyte stimulation medium. […]

For data set [8], the system named is cytokine-stimulated PGE2 synthesis, human ARC tissues. Kind of data set: human ARC tissues: PGE2 synthesis. The data set is classed as cell-based. To be noted: for PGE2 Inhibition: TNFα stimulated responses. The method, then: as §5, §7, §8, §9
[9] abbreviates: at 1 ng/ml, TNFα stimulated responses.

As to `CNC(=O)[C@H](Cc1ccccc1)NC(=O)[C@H](CC(C)C)[C@H](CSc1cccs1)C(=O)NO` [Batimastat], the “PGE2 synthesis, inhibition” value in data set [1] was “did not inhibit; also recorded: No effect”.
Consider `Nc1nc(Nc2ccc(S(N)(=O)=O)cc2)nn1C(=O)c1c(F)cccc1F` [JNJ 7706621, 4-[5-Amino-1-(2,6-difluoro-benzoyl)-1H-[1,2,4]triazol-3-ylamino]-benzenesulfonamide], for which, in data set [2] (ARC, 7.5 ng/ml IL-1, five days, JNJ 7706621 at 5 μM), the “PGE2 synthesis” value is recorded as “little effect”. Also, in data set [2] (Pellet Assay), the “PGE2 Inhibition” value is “No effect”. In [3], the “NO production” value was “completely blocked”. The “cytotoxicity to chondrocytes (LDH, words)” value in the data set with chondrocytes was “little toxicity”. In data set [4], the “GAG Release” value is “completely blocked”. In addition, the “antitumor activity in human tumor xenograft models” value in data set [5] is recorded as “single agent antitumor activity”. Besides, the IC50 in the data set with human cancer cell lines stood at 337 ± 123 nM.
With “REMICADE®: monoclonal antibody against human TNFα”, in data set [6] (10 ng/ml TNFα), the “TNFα-induced NO production” value is reported as “strongly inhibited”. The “NO Inhibition” value in data set [6] (setting [9]) worked out at 100% at. In [7] (5 ng/ml IL-1β), the “IL-1β stimulated responses (PGE2, NO, GAG; words)” value is on record as “little effect”. Moreover, in data set [7] (10 ng/ml TNFα), the “TNFα-induced GAG release” value is recorded as “strongly inhibited”. Moreover, the “GAG Release, inhibition” value in [7] (setting [9]) is 100% at 1 ng/ml. In addition, the “TNFα-induced PGE2 synthesis” value in data set [8] (10 ng/ml TNFα) was “strongly inhibited”. The entries for the “PGE2 Inhibition” value in data set [8] (at 1 ng/ml) and in data set [8] (at 10 ng/ml) were 50% at 1 ng/ml and 100% at, respectively.
